Assay results: patent publication US7579019B2, “Pharmaceutical carrier device suitable for delivery of pharmaceutical compounds to mucosal surfaces” (priority 1997, dated 2009)

Experiment: systemic availability study in dogs, testosterone, RIA method (Example 40)
Type: in vivo
Conditions: female, bred hound, dog, plasma, other: buccal (film disc applied to the buccal mucosa), 0.8 mg per disc, mean of three dogs, buccal ½ inch disc of Example 39 film, 0.8 mg testosterone per disc, read-out: systemic plasma level, Mean
Text: The films obtained via Examples 38 and 39 are die-cut in ½ inch diameter discs to be characterized and to be used for a systemic availability study in three dogs (20-25 kg spayed female bred hounds). One disc of the film to be evaluated is applied to the inside of the mouth on the buccal mucosa. A slight pressure is applied for 10 seconds. Then, the oral cavity is examined to assure adherence of the film to the mucosa and over the course of the study, to monitor the erosion of the discs. Using an indwelling jugular catheter, blood samples are collected at specific intervals. The serum is characterized by an ELISA assay in the case of albuterol sulfate and by an RIA method for the testosterone study.
After application of ½ inch diameter discs, systemic plasma levels obtained at different intervals are given in nanograms per milliliter for the mean of the three dogs.

What does the source list for `C[C@]12CC[C@H]3[C@@H](CCC4=CC(=O)CC[C@@]43C)[C@@H]1CC[C@@H]2O` [testosterone]?
concentration at 0 min (time 0 minutes): 0 ng/mL; concentration at 5 min (time 5 minutes): 2.21 ng/mL; concentration at 10 min (time 10 minutes): 4.68 ng/mL; concentration at 15 min (time 15 minutes): 3.81 ng/mL; concentration at 30 min (time 30 minutes): 2.87 ng/mL; concentration at 60 min (time 60 minutes): 3.73 ng/mL; concentration at 90 min (time 90 minutes): 4.82 ng/mL; concentration at 120 min (time 120 minutes): 7.14 ng/mL; concentration at 150 min (time 150 minutes): 3.2 ng/mL; concentration at 180 min (time 180 minutes): 0.62 ng/mL; concentration at 240 min (time 240 minutes): 0.18 ng/mL; concentration at 360 min (time 360 minutes): 0.12 ng/mL; concentration at 480 min (time 480 minutes): 0.02 ng/mL; concentration at 720 min (time 720 minutes): 0.01 ng/mL
